Experimental data published in patent US9340590B2 (priority 2011, dated 2016).
Positions of bridges follow the written chain, without caps; N, C: chain ends. Non-standard residues stand in square brackets, D forms with d. Residues, ends and D or L forms follow the SMILES beside them. 1Nal = N[C@@H](Cc1cccc2ccccc12)C(=O)O

Legend:
Test in all cases: cell-based
hNav1.5 = hNav1.5 (Homo sapiens, UniProt Q14524); conditions: IonWorks Quattro, use-dependent block, hNav1.5; read-out: IWQ Use Nav1.5
hNav1.3 = hNav1.3 (Homo sapiens, UniProt Q9NY46); conditions: IonWorks Quattro, use-dependent block, hNav1.3; read-out: IWQ Use Nav1.3
hNav1.7 = hNav1.7 (Homo sapiens, UniProt Q15858); type: cell-based; conditions: IonWorks Quattro, use-dependent block, hNav1.7; read-out: IWQ Use Nav1.7
Chain of hNav1.7 (Q15858 whole entry, looked up): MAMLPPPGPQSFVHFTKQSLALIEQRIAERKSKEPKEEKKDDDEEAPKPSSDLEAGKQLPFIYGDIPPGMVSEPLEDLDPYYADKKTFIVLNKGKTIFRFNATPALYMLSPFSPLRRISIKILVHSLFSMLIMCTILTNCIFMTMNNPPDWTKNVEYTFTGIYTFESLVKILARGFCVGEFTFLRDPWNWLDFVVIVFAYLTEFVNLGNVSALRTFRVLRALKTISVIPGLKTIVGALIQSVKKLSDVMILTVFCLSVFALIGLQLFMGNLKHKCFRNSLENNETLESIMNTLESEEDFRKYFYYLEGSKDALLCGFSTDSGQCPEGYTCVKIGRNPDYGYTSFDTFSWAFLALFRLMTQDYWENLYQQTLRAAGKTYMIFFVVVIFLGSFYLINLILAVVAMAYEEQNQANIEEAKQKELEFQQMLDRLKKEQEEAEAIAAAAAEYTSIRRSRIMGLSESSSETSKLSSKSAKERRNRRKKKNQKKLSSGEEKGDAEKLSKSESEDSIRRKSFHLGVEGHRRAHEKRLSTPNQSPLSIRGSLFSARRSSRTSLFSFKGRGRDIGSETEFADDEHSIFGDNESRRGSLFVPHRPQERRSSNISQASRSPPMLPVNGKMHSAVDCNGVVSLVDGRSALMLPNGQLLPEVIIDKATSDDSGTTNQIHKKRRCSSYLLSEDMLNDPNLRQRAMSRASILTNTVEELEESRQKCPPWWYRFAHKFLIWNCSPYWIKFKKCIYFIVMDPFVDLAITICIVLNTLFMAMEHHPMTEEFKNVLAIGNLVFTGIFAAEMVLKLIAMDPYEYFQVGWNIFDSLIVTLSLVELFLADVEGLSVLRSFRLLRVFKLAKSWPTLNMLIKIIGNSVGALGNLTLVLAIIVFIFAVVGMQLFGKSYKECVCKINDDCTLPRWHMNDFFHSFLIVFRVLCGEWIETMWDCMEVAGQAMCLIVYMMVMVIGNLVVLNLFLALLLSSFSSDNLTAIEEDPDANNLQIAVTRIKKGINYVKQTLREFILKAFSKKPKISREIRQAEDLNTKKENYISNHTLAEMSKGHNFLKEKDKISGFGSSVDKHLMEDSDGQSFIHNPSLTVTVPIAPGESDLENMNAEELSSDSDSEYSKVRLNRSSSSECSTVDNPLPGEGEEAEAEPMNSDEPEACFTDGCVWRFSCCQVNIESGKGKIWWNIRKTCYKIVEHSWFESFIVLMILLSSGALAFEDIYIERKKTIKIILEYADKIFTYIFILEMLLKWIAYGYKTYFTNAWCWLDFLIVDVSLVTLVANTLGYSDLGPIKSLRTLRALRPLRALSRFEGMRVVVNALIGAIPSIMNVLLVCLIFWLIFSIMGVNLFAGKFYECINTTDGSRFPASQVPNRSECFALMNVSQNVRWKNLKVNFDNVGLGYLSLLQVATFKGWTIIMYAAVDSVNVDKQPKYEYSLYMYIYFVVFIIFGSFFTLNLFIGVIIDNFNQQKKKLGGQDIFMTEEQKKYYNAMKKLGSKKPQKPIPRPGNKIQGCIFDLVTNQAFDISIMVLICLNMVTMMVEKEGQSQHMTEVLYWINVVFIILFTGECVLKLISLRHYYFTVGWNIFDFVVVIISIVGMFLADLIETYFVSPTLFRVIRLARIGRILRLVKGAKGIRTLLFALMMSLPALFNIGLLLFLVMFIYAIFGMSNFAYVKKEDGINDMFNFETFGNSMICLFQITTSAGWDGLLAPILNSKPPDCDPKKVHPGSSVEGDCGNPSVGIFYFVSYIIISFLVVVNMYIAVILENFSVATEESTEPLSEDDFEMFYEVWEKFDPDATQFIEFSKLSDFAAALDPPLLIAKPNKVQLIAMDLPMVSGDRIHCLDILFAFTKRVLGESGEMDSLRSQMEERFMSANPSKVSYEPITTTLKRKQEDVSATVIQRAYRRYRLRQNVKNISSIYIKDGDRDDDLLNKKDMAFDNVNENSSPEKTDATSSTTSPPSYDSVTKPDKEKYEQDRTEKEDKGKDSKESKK

Chain of hNav1.5 (Q14524 whole entry, looked up): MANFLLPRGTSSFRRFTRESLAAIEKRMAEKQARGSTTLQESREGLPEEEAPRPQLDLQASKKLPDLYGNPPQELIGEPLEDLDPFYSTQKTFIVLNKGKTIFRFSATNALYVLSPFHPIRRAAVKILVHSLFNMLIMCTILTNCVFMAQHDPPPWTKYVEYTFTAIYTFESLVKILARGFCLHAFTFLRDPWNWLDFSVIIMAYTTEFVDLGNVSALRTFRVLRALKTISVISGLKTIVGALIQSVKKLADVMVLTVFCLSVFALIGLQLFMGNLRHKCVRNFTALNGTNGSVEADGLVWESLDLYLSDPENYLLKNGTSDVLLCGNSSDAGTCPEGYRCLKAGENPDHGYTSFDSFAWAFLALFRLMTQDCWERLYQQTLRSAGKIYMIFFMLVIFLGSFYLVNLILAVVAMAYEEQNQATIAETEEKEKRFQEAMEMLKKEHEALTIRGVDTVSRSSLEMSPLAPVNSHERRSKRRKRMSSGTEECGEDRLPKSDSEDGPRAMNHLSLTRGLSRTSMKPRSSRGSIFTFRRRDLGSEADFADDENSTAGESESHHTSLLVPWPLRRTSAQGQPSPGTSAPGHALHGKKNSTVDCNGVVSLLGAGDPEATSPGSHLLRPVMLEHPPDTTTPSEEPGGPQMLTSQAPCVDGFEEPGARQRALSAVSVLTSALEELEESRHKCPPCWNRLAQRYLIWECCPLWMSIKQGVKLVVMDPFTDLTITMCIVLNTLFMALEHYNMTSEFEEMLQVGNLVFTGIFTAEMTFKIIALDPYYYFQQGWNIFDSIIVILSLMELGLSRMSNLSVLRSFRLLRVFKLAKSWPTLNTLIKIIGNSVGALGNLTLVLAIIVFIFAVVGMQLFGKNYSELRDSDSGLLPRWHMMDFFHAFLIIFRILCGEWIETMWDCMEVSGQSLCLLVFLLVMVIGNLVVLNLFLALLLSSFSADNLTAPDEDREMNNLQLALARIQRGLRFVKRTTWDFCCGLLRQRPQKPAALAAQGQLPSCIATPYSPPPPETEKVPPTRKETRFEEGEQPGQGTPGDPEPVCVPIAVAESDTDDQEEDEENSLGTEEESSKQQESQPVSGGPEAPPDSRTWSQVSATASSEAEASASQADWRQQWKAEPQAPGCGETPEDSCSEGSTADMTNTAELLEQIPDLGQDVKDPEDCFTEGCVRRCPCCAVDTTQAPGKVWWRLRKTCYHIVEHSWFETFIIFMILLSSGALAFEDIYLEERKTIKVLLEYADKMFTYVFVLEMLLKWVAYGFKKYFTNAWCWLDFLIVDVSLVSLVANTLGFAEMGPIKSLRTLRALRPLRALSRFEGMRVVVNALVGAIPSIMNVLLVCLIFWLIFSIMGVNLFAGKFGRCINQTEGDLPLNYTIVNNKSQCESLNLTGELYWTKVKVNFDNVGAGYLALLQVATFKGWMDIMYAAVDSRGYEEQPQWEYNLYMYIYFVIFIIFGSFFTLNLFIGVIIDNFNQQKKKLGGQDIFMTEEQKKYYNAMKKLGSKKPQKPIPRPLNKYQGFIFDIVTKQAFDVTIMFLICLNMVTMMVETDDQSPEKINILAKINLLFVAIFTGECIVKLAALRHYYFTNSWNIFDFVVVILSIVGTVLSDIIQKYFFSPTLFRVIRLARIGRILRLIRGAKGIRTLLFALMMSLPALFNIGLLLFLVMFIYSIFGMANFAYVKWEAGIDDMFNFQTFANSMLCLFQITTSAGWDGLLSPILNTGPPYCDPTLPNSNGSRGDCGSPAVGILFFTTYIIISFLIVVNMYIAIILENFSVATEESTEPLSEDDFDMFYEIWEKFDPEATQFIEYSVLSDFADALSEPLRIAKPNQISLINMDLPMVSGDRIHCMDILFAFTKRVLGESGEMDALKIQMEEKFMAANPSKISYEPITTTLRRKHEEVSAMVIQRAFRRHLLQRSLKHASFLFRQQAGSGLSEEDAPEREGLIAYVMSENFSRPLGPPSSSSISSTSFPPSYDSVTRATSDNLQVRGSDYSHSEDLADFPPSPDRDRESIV

`CC[C@H](C)[C@@H]1NC(=O)[C@@H]2CSSC[C@@H]3NC(=O)[C@H](C(C)C)NC(=O)[C@H](CC(C)C)NC(=O)[C@H](CC(N)=O)NC(=O)[C@@H]4CCCN4C(=O)[C@H](CCCNC(=N)N)NC(=O)[C@H](CSSC[C@H](NC(=O)[C@@H](N)CC(=O)O)C(=O)N[C@@H](CC(C)C)C(=O)NCC(=O)N[C@@H](Cc4ccccc4)C(=O)N[C@@H](Cc4c[nH]c5ccccc45)C(=O)N[C@@H](CCCNC(=N)N)C(=O)N[C@@H](CCCCN)C(=O)N2)NC(=O)[C@H](CSSC[C@@H](C(=O)N[C@@H](CCCCN)C(=O)N[C@@H](Cc2ccc(O)cc2)C(=O)N[C@H](C(=O)N[C@@H](Cc2ccccc2)C(N)=O)C(C)C)NC(=O)[C@H](Cc2c[nH]c4ccccc24)NC(=O)[C@H](CCCNC(=N)N)NC(=O)[C@H](Cc2c[nH]cn2)NC(=O)[C@H]([C@@H](C)O)NC(=O)[C@H](CCCNC(=N)N)NC(=O)[C@H](CO)NC3=O)NC(=O)[C@H](CCCCN)NC(=O)[C@H](CC(=O)O)NC(=O)[C@H](CC(N)=O)NC(=O)[C@H](CC(=O)O)NC(=O)[C@@H]2CCCN2C1=O` [compound 448] (H-DCLGFWRKCIPDNDKCCRPNLVCSRTHRWCKYVF-NH2; disulfide 2-17, 9-23, 16-30) was tested, and the IC50 (hNav1.5) was 2.91 µM, the IC50 (hNav1.3) was 0.01 µM and the IC50 (hNav1.7) was 0.01 µM.
Work on `CC[C@H](C)[C@@H]1NC(=O)[C@@H]2CSSC[C@@H]3NC(=O)[C@H](C(C)C)NC(=O)[C@H](CC(C)C)NC(=O)[C@H](CC(N)=O)NC(=O)[C@@H]4CCCN4C(=O)[C@H](CCCNC(=N)N)NC(=O)[C@H](CSSC[C@H](NC(=O)[C@@H](N)CC(=O)O)C(=O)N[C@@H](CC(C)C)C(=O)NCC(=O)N[C@@H](Cc4ccccc4)C(=O)N[C@@H](Cc4c[nH]c5ccccc45)C(=O)N[C@@H](CCCNC(=N)N)C(=O)N[C@@H](CCCCN)C(=O)N2)NC(=O)[C@H](CSSC[C@@H](C(=O)N[C@@H](CCCCN)C(=O)N[C@@H](Cc2c[nH]c4ccccc24)C(=O)N[C@H](C(=O)N[C@@H](Cc2ccccc2)C(N)=O)C(C)C)NC(=O)[C@H](Cc2c[nH]c4ccccc24)NC(=O)[C@H](CCCCN)NC(=O)[C@H](Cc2c[nH]cn2)NC(=O)[C@H]([C@@H](C)O)NC(=O)[C@H](CCCNC(=N)N)NC(=O)[C@H](CO)NC3=O)NC(=O)[C@H](CCCCN)NC(=O)[C@H](CC(=O)O)NC(=O)[C@H](CC(N)=O)NC(=O)[C@H](CC(=O)O)NC(=O)[C@@H]2CCCN2C1=O` [compound 449] (H-DCLGFWRKCIPDNDKCCRPNLVCSRTHKWCKWVF-NH2; disulfide 2-17, 9-23, 16-30) yielded an IC50 (hNav1.5) of 2.93 µM, an IC50 (hNav1.3) of 0.01 µM and an IC50 (hNav1.7) of 0.03 µM.
`CC[C@H](C)[C@@H]1NC(=O)[C@@H]2CSSC[C@@H]3NC(=O)[C@H](C(C)C)NC(=O)[C@H](CC(C)C)NC(=O)[C@H](CC(N)=O)NC(=O)[C@@H]4CCCN4C(=O)[C@H](CCCNC(=N)N)NC(=O)[C@H](CSSC[C@H](NC(=O)[C@@H](N)CC(=O)O)C(=O)N[C@@H](CC(C)C)C(=O)NCC(=O)N[C@@H](Cc4ccccc4)C(=O)N[C@@H](CCSC)C(=O)N[C@@H](CCCNC(=N)N)C(=O)N[C@@H](CCCCN)C(=O)N2)NC(=O)[C@H](CSSC[C@@H](C(=O)N[C@@H](CCCCN)C(=O)N[C@@H](Cc2c[nH]c4ccccc24)C(=O)N[C@@H](Cc2c[nH]c4ccccc24)C(=O)N[C@@H](Cc2ccccc2)C(N)=O)NC(=O)[C@H](Cc2c[nH]c4ccccc24)NC(=O)[C@H](CCCCN)NC(=O)[C@H](Cc2c[nH]cn2)NC(=O)[C@H]([C@@H](C)O)NC(=O)[C@H](CCCNC(=N)N)NC(=O)[C@H](CO)NC3=O)NC(=O)[C@H](CCCCN)NC(=O)[C@H](CC(=O)O)NC(=O)[C@H](CC(N)=O)NC(=O)[C@H](CC(=O)O)NC(=O)[C@@H]2CCCN2C1=O` [compound 450] (H-DCLGFMRKCIPDNDKCCRPNLVCSRTHKWCKWWF-NH2; disulfide 2-17, 9-23, 16-30) was tested, and the IC50 (hNav1.5) was 11.5 µM, the IC50 (hNav1.3) was 0.03 µM and the IC50 (hNav1.7) was 0.05 µM.
In the case of `CSCC[C@@H]1NC(=O)[C@H](Cc2ccccc2)NC(=O)CNC(=O)[C@H](CC(C)C)NC(=O)[C@@H](NC(=O)[C@@H](N)CC(=O)O)CSSC[C@@H]2NC(=O)[C@@H]3CSSC[C@@H](C(=O)N[C@@H](CCCCN)C(=O)N[C@@H](Cc4cccc5ccccc45)C(=O)N[C@H](C(=O)N[C@@H](Cc4ccccc4)C(N)=O)C(C)C)NC(=O)[C@H](Cc4c[nH]c5ccccc45)NC(=O)[C@H](CCCCN)NC(=O)[C@H](Cc4c[nH]cn4)NC(=O)[C@H]([C@@H](C)O)NC(=O)[C@H](CCCNC(=N)N)NC(=O)[C@H](CO)NC(=O)[C@H](CSSC[C@H](NC(=O)[C@H](CCCCN)NC(=O)[C@H](CCCNC(=N)N)NC1=O)C(=O)N[C@@H](Cc1cccc4ccccc14)C(=O)N1CCC[C@H]1C(=O)N[C@@H](CC(=O)O)C(=O)N[C@@H](CC(N)=O)C(=O)N[C@@H](CC(=O)O)C(=O)N[C@@H](CCCCN)C(=O)N3)NC(=O)[C@H](C(C)C)NC(=O)[C@H](CC(C)C)NC(=O)[C@H](CC(N)=O)NC(=O)[C@@H]1CCCN1C(=O)[C@H](CCCNC(=N)N)NC2=O` [compound 452], the IC50 (hNav1.5) is reported as greater than 5 µM, the IC50 (hNav1.3) is reported as 0.003 µM and the IC50 (hNav1.7) is reported as 0.005 µM.
In the case of `CC[C@H](C)[C@@H]1NC(=O)[C@@H]2CSSC[C@@H]3NC(=O)[C@H](C(C)C)NC(=O)[C@H](CC(C)C)NC(=O)[C@H](CC(N)=O)NC(=O)[C@@H]4CCCN4C(=O)[C@H](CCCNC(=N)N)NC(=O)[C@H](CSSC[C@H](NC(=O)[C@@H](N)CC(=O)O)C(=O)N[C@@H](CC(C)C)C(=O)NCC(=O)N[C@@H](Cc4ccccc4)C(=O)N[C@@H](CCSC)C(=O)N[C@@H](CCCNC(=N)N)C(=O)N[C@@H](CCCCN)C(=O)N2)NC(=O)[C@H](CSSC[C@@H](C(=O)N[C@@H](CCCCN)C(=O)N[C@@H](Cc2cccc4ccccc24)C(=O)N[C@H](C(=O)N[C@@H](Cc2ccccc2)C(N)=O)C(C)C)NC(=O)[C@H](Cc2c[nH]c4ccccc24)NC(=O)[C@H](CCCCN)NC(=O)[C@H](Cc2c[nH]cn2)NC(=O)[C@H](CC(C)C)NC(=O)[C@H](CCCNC(=N)N)NC(=O)[C@H](CO)NC3=O)NC(=O)[C@H](CCCCN)NC(=O)[C@H](CC(=O)O)NC(=O)[C@H](CC(N)=O)NC(=O)[C@H](CC(=O)O)NC(=O)[C@@H]2CCCN2C1=O` [compound 453] (H-DCLGFMRKCIPDNDKCCRPNLVCSRLHKWCK[1Nal]VF-NH2; disulfide 2-17, 9-23, 16-30), the IC50 (hNav1.5) is reported as greater than 5 µM, the IC50 (hNav1.3) is reported as 0.01 µM and the IC50 (hNav1.7) is reported as 0.01 µM.
`CC[C@H](C)[C@@H]1NC(=O)[C@@H]2CSSC[C@@H]3NC(=O)[C@H](C(C)C)NC(=O)[C@H](CC(C)C)NC(=O)[C@H](CC(N)=O)NC(=O)[C@@H]4CCCN4C(=O)[C@H](CCCNC(=N)N)NC(=O)[C@H](CSSC[C@H](NC(=O)[C@@H](N)CC(=O)O)C(=O)N[C@@H](CC(C)C)C(=O)NCC(=O)N[C@@H](Cc4ccccc4)C(=O)N[C@@H](CCSC)C(=O)N[C@@H](CCCNC(=N)N)C(=O)N[C@@H](CCCCN)C(=O)N2)NC(=O)[C@H](CSSC[C@@H](C(=O)N[C@@H](CCCCN)C(=O)N[C@@H](Cc2c[nH]c4ccccc24)C(=O)N[C@@H](Cc2cccc4ccccc24)C(=O)N[C@@H](Cc2ccccc2)C(N)=O)NC(=O)[C@H](Cc2c[nH]c4ccccc24)NC(=O)[C@H](CCCCN)NC(=O)[C@H](Cc2c[nH]cn2)NC(=O)[C@H]([C@@H](C)O)NC(=O)[C@H](CCCNC(=N)N)NC(=O)[C@H](CO)NC3=O)NC(=O)[C@H](CCCCN)NC(=O)[C@H](CC(=O)O)NC(=O)[C@H](CC(N)=O)NC(=O)[C@H](CC(=O)O)NC(=O)[C@@H]2CCCN2C1=O` [compound 455] (H-DCLGFMRKCIPDNDKCCRPNLVCSRTHKWCKW[1Nal]F-NH2; disulfide 2-17, 9-23, 16-30) showed an IC50 (hNav1.5) greater than 5 µM, an IC50 (hNav1.3) of 0.04 µM and an IC50 (hNav1.7) of 0.02 µM.
`CC[C@H](C)[C@@H]1NC(=O)[C@@H]2CSSC[C@@H]3NC(=O)[C@H](C(C)C)NC(=O)[C@H](CC(C)C)NC(=O)[C@H](CC(N)=O)NC(=O)[C@@H]4CCCN4C(=O)[C@H](CCCNC(=N)N)NC(=O)[C@H](CSSC[C@H](NC(=O)[C@@H](N)CC(=O)O)C(=O)N[C@@H](CC(C)C)C(=O)NCC(=O)N[C@@H](Cc4ccccc4)C(=O)N[C@@H](Cc4c[nH]c5ccccc45)C(=O)N[C@@H](CCCNC(=N)N)C(=O)N[C@@H](CCCCN)C(=O)N2)NC(=O)[C@H](CSSC[C@@H](C(=O)N[C@@H](CCCCN)C(=O)N[C@@H](Cc2ccc(O)cc2)C(=O)N[C@H](C(=O)N[C@@H](Cc2ccccc2)C(N)=O)C(C)C)NC(=O)[C@H](Cc2c[nH]c4ccccc24)NC(=O)[C@H](CCCCN)NC(=O)[C@H](Cc2c[nH]cn2)NC(=O)[C@H](CC(C)C)NC(=O)[C@H](CCCNC(=N)N)NC(=O)[C@H](CO)NC3=O)NC(=O)[C@H](CCCCN)NC(=O)[C@H](CC(=O)O)NC(=O)[C@H](CC(N)=O)NC(=O)[C@H](CC(=O)O)NC(=O)[C@@H]2CCCN2C1=O` [compound 456] (H-DCLGFWRKCIPDNDKCCRPNLVCSRLHKWCKYVF-NH2; disulfide 2-17, 9-23, 16-30) showed an IC50 (hNav1.5) greater than 5 µM, an IC50 (hNav1.3) of 0.01 µM and an IC50 (hNav1.7) of 0.03 µM.
For `CC[C@H](C)[C@@H]1NC(=O)[C@@H]2CSSC[C@@H]3NC(=O)[C@H](C(C)C)NC(=O)[C@H](CC(C)C)NC(=O)[C@H](CC(N)=O)NC(=O)[C@@H]4CCCN4C(=O)[C@H](CCCNC(=N)N)NC(=O)[C@H](CSSC[C@H](NC(=O)[C@@H](N)CC(=O)O)C(=O)N[C@@H](CC(C)C)C(=O)NCC(=O)N[C@@H](Cc4ccccc4)C(=O)N[C@@H](CCSC)C(=O)N[C@@H](CCCNC(=N)N)C(=O)N[C@@H](CCCCN)C(=O)N2)NC(=O)[C@H](CSSC[C@@H](C(=O)N[C@@H](CCCCN)C(=O)N[C@@H](Cc2cccc4ccccc24)C(=O)N[C@@H](Cc2c[nH]c4ccccc24)C(=O)N[C@@H](Cc2ccccc2)C(N)=O)NC(=O)[C@H](Cc2c[nH]c4ccccc24)NC(=O)[C@H](CCCCN)NC(=O)[C@H](Cc2c[nH]cn2)NC(=O)[C@H]([C@@H](C)O)NC(=O)[C@H](CCCNC(=N)N)NC(=O)[C@H](CO)NC3=O)NC(=O)[C@H](CCCCN)NC(=O)[C@H](CC(=O)O)NC(=O)[C@H](CC(N)=O)NC(=O)[C@H](CC(=O)O)NC(=O)[C@@H]2CCCN2C1=O` [compound 460] (H-DCLGFMRKCIPDNDKCCRPNLVCSRTHKWCK[1Nal]WF-NH2; disulfide 2-17, 9-23, 16-30), the IC50 (hNav1.5) was greater than 5 µM, the IC50 (hNav1.3) was 0.03 µM and the IC50 (hNav1.7) was 0.08 µM.
